Each block holds one molecule with its values, some of them ahead of it.
Key:
[1] = Comparative color-change reactivities of pressed pellets, cyan optical density after ageing at 37, 45 or 70° C. (Example 4); assay type: physicochemical; conditions: for color change kinetics / reactivity relative to raw product: 37° C., FIG. 12; for activation energy: color-change (solid-state polymerization) reaction of pellets
Experimental: Sample pellets are prepared from crystalline diacetylenic monomer powder using an E-Z Press 12-Ton Hydraulic Press and KBr Pellet Kit with 13 mm die set, as supplied by International Crystal Laboratories (Garfield, N.J.). Using about 300 mg powder, a pressure of 5 to 8 tons is applied for 2-3 minutes. Samples of 2,4-hexadiyn-1,6-bis(ethylurea) precipitated from dimethyl sulfoxide, methanol and a 4:1 by weight ethanol/water mixture are prepared. Pellets of raw 2,4-hexadiyn-1,6-bis(ethylurea) crystals (“KE raw”), precipitated from a solution in hot glacial acetic acid, using methanol as a precipitant, shortly after the 2,4-hexadiyn-1,6-bis(ethylurea) was synthesized, are included as controls.
While being handled by the edges, an individual pellet is placed in a transparent heat-seal bag, about 50 mm by 115 mm, vacuum sealed and placed into a heat-sealable foil pouch. The foil pouch is vacuum-sealed using a Fuji Impulse tabletop vacuum heat sealer. The sealed foil pouch containing the pellets is stored in a freezer at −30° C., or other suitable temperature, until ready for testing.
The heat-sealed foil pouch samples containing the pellets are placed in a water bath, for example a Huber circulating water bath, set to appropriate temperatures for example 37° C., 45° C. or 70° C., and aged for suitable measured time periods such as a few days at 37° C. or a few hours at 70° C. where the reaction proceeds more rapidly. The samples are weighted to keep them immersed in the water during the test. Timing is started immediately after each pouch is placed into the water bath. The pouch is removed at the end of the designated test period and its optical density is measured.
To measure optical density the pouch is briefly immersed in a second water bath set at 20° C. to quench the sample and prevent further color change during measurement. The foil pouch is cut open leaving the pellet inside the transparent heat-sealed bag. The reaction kinetics of the diacetylenic monomer are determined by measuring the cyan optical density (O.D.) of the aged pellets using an X-Rite 404 color reflection densitometer. The optical density can be measured on an arbitrary scale and used for comparative indications of color change reactivity.
In order to compensate for the thickness of the pellets, which are about 2 mm thick, when using the densitometer, the densitometer can be raised on to an elevated platform of corresponding height.

[2] = Room temperature solubility of 4DOD in solvent systems, saturated solution dried and weighed (Example 2A); assay type: physicochemical; conditions: about 25° C.; for Calculated solubility of 4DOD: stirred 16 hours
Experimental: To serve as indicator agent, a […] polymerizable diacetylenic monomer, namely 5,7-dodecadiyn-1,12 diol bis(n-octadecyl urethane), “4DOD” hereinafter, is synthesized in sufficient quantity for preparation of a master batch of ink, by the method described in Yee U.S. Pat. No. 4,215,208 at column 17, lines 47-65 and is stored in a freezer. A small quantity of 4DOD is taken from frozen storage and is tested at room temperature for solubility in various solvent systems employing the following procedure.
100 g of deionized water is weighed into a 200 mL glass beaker. 4DOD powder is added to the glass beaker until the solution is saturated allowing excess 4DOD to remain present as undissolved solid. 75 g of deionized water is weighed into another 200 mL glass beaker, and 25 g acetone is added. 4DOD is then added to the water-acetone solvent system in the glass beaker until the solution is saturated and an excess of 4DOD remains as undissolved solid. 75 g of deionized water is weighed into a third 200 mL glass beaker. 25 g ethanol is added to the water and then 4DOD is added to the water-ethanol mixture until the solution is saturated and an excess of 4DOD remains as undissolved solid. Each solution is stirred on a magnetic plate for 16 hours at a controlled room temperature of about 25° C.
After 16 hours of stirring, 7 g of each solution (soluble portion only, avoiding any undissolved solid material) is transferred to a separate aluminum foil pan. The aluminum foil pans are left to stand under a fume hood for 2 hours to allow any volatile solvent to evaporate, and are then dried in a vacuum oven for one 1 hour. Each aluminum foil pan is then weighed and the solubility of the 4DOD in each solvent system is calculated in terms of the percent of solute based on the weight of the solvent system.

Molecule: CCNC(=O)NCC#CC#CCNC(=O)NCC [2,4-hexadiyn-1,6-bis(ethylurea) crystallized from pyridine]
color change kinetics / reactivity relative to raw product [1]: faster color change kinetics than does the raw product | activation energy [1]: about 19 kcal/mol

Molecule: CCNC(=O)NCC#CC#CCNC(=O)NCC [raw product, 2,4-hexadiyn-1,6-bis(ethylurea), reference compound]
activation energy [1]: 23 kcal/mol

Molecule: CCNC(=O)NCC#CC#CCNC(=O)NCC [2,4-hexadiyn-1,6-bis(ethylurea)]
color change kinetics / reactivity relative to raw product [1]: modestly faster reactivity than raw 2,4-hexadiyn-1,6-bis(ethylurea) | reactivity profile ([1]; 45° C., FIG. 13): close to that of the pyridine product

Calculated solubility of 4DOD ([2]; 75% Water 25% Acetone): 10% wt % | Calculated solubility of 4DOD ([2]; 100% Acetone): 32% wt % | Calculated solubility of 4DOD ([2]; 100% Ethanol): 37% wt % | Calculated solubility of 4DOD ([2]; Water): 0.03% wt % | solubility in the individual organic solvent alone, in words ([2]; ethanol or acetone alone): remarkably high solubility | solubility in water, in words ([2]; water): minimal solubility
Molecule: 5,7-dodecadiyn-1,12-bis-n-octadecyl urethane [4DOD]
